# pEC50: −log10 of the molar value.
# Assays:
# [1] = system: SFTSV-Nluc; experiment: microbe, parasite or virus in culture; assay type: cell-based, severe fever with thrombocytopenia syndrome virus (SFTSV); conditions: Severe fever with thrombocytopenia syndrome virus, Vero, 48 h; for inhibition at 10 µM: read-out: Inhibition rate (10 μM)
# [2] = Cytotoxicity in HEp-2 cells (CCK8); conditions: human
# [3] = Solubility of compounds in water; conditions: thermodynamic from solid
# [4] = in vitro; conditions: dog
# [5] = Stability test of compounds in solutions at different pH values
# [6] = system: influenza virus (IFV) A/California/07/2009 (H1N1) pdm09 strain; experiment: In vitro activity against influenza virus (CPE, CCK8, MDCK cells); assay type: cell-based; conditions: 120 h, read-out: IFV (MDCK) EC50
# [7] = system: respiratory syncytial virus (RSV) A long strain; experiment: In vitro activity against respiratory syncytial virus (CPE, CCK8, HEp-2 cells); assay type: cell-based; conditions: human respiratory syncytial virus, 120 h, MOI=0.02, 5 days
# [8] = system: influenza virus Influenza A/PR/8/34 (PR8); experiment: In vivo efficacy for influenza virus in mice; parameters: species or system Balb/C mice; conditions: for body weight after 4 days of infection compared with the initial body weight: intragastric once daily Day 0-3, X219 hydrochloride 10, 20 and 30 mpk, favipiravir 200 mpk
# [9] = system: SFTSV-Nluc; parameters: species or system A129 mice; conditions: mouse
# [10] = system: respiratory syncytial virus (RSV A2); experiment: In vivo efficacy for respiratory syncytial virus (RSV) in mice
# [11] = buffered saline solution pH 4.0, 3 h
# [12] = buffered saline solution pH 4.0, 6 h
# [13] = buffered saline solution pH 4.0, 9 h
# [14] = buffered saline solution pH 4.0, 12 h
# [15] = buffered saline solution pH 4.0, 15 h
# [16] = buffered saline solution pH 4.0, 18 h
# [17] = buffered saline solution pH 4.0, 21 h
# [18] = buffered saline solution pH 4.0, 24 h
# [19] = buffered saline solution pH 6.8, 3 h
# [20] = buffered saline solution pH 6.8, 6 h
# [21] = buffered saline solution pH 6.8, 9 h
# [22] = buffered saline solution pH 6.8, 12 h
# [23] = buffered saline solution pH 6.8, 15 h
# [24] = buffered saline solution pH 6.8, 18 h
# [25] = buffered saline solution pH 6.8, 21 h
# [26] = buffered saline solution pH 6.8, 24 h
structure (smiles),measurement,setting,value
CC(=O)OC[C@@]1(F)O[C@@H](n2ccc(=O)n(COC(=O)c3cccnc3)c2=O)[C@H](OC(C)=O)[C@@H]1OC(C)=O [Compound X219],pEC50,[1],5.47
same,inhibition at 10 µM,[1],91.7%
same,CC50 at 5 days,[2],> 10000 nM
same,solubility at 15 min,[3],700 µg/mL
same,CC50,[4],> 10000 nM
same,Content reduction (%),[5]; [11],0.22%
same,Content reduction (%),[5]; [12],0.34%
same,Content reduction (%),[5]; [13],0.44%
same,Content reduction (%),[5]; [14],0.62%
same,Content reduction (%),[5]; [15],0.70%
same,Content reduction (%),[5]; [16],0.78%
same,Content reduction (%),[5]; [17],0.93%
same,Content reduction (%),[5]; [18],1.02%
same,Content reduction (%),[5]; [19],1.06%
same,Content reduction (%),[5]; [20],1.86%
same,Content reduction (%),[5]; [21],2.92%
same,Content reduction (%),[5]; [22],3.96%
same,Content reduction (%),[5]; [23],5.27%
same,Content reduction (%),[5]; [24],6.01%
same,Content reduction (%),[5]; [25],7.02%
same,Content reduction (%),[5]; [26],8.38%
same,pEC50,[6],5.41
same,pEC50,[7],5.59
CC(C)C(=O)OC[C@@]1(F)O[C@@H](n2ccc(=O)n(COC(=O)c3cccnc3)c2=O)[C@H](OC(=O)C(C)C)[C@@H]1OC(=O)C(C)C [Compound X206],pEC50,[1],5.76
same,inhibition at 10 µM,[1],93.7%
same,CC50 at 5 days,[2],> 10000 nM
same,CC50,[4],> 10000 nM
same,Content reduction (%),[5]; [11],0.01%
same,Content reduction (%),[5]; [12],0.03%
same,Content reduction (%),[5]; [13],0.02%
same,Content reduction (%),[5]; [14],0.03%
same,Content reduction (%),[5]; [15],0.03%
same,Content reduction (%),[5]; [16],0.01%
same,Content reduction (%),[5]; [17],0.03%
same,Content reduction (%),[5]; [18],0.0%
same,Content reduction (%),[5]; [19],1.93%
same,Content reduction (%),[5]; [20],3.09%
same,Content reduction (%),[5]; [21],3.84%
same,Content reduction (%),[5]; [22],4.06%
same,Content reduction (%),[5]; [23],5.72%
same,Content reduction (%),[5]; [24],6.34%
same,Content reduction (%),[5]; [25],7.28%
same,Content reduction (%),[5]; [26],8.16%
same,pEC50,[6],6.42
same,pEC50,[7],5.61
CC(C)C(=O)OC[C@@]1(F)O[C@@H](n2ccc(=O)n(COC(=O)C3CCCCC3)c2=O)[C@H](O)[C@@H]1O [Compound X55],pEC50,[1],5.98
same,inhibition at 10 µM,[1],93.6%
same,CC50 at 5 days,[2],> 10000 nM
same,CC50,[4],> 10000 nM
same,Content reduction (%),[5]; [11],2.4%
same,Content reduction (%),[5]; [12],4.9%
same,Content reduction (%),[5]; [13],6.9%
same,Content reduction (%),[5]; [14],9.0%
same,Content reduction (%),[5]; [15],10.8%
same,Content reduction (%),[5]; [16],12.7%
same,Content reduction (%),[5]; [17],14.2%
same,Content reduction (%),[5]; [18],15.4%
same,Content reduction (%),[5]; [19],1.0%
same,Content reduction (%),[5]; [20],2.3%
same,Content reduction (%),[5]; [21],3.3%
same,Content reduction (%),[5]; [22],4.4%
same,Content reduction (%),[5]; [23],5.4%
same,Content reduction (%),[5]; [24],6.4%
same,Content reduction (%),[5]; [25],7.7%
same,pEC50,[6],> 6.43
same,pEC50,[7],5.79
CC(C)C(=O)OCn1c(=O)ccn([C@@H]2O[C@](F)(COC(=O)C(C)C)[C@@H](O)[C@H]2O)c1=O [Compound X51],pEC50,[1],6.37
same,inhibition at 10 µM,[1],94.1%
same,CC50 at 5 days,[2],> 10000 nM
same,CC50,[4],> 10000 nM
same,Content reduction (%),[5]; [11],1.6%
same,Content reduction (%),[5]; [12],2.5%
same,Content reduction (%),[5]; [13],3.1%
same,Content reduction (%),[5]; [14],3.4%
same,Content reduction (%),[5]; [15],3.9%
same,Content reduction (%),[5]; [16],4.6%
same,Content reduction (%),[5]; [17],5.2%
same,Content reduction (%),[5]; [18],5.6%
same,Content reduction (%),[5]; [19],1.1%
same,Content reduction (%),[5]; [20],2.0%
same,Content reduction (%),[5]; [21],3.0%
same,Content reduction (%),[5]; [22],3.8%
same,Content reduction (%),[5]; [23],4.7%
same,Content reduction (%),[5]; [24],5.6%
same,Content reduction (%),[5]; [25],6.5%
same,Content reduction (%),[5]; [26],7.4%
same,pEC50,[6],> 6.43
same,pEC50,[7],5.67
CC(=O)O[C@H]1[C@H](n2ccc(=O)[nH]c2=O)O[C@](F)(COC(=O)C(C)C)[C@H]1OC(C)=O [Compound X265-3],solubility at 15 min,[3],100 µg/mL
"NC(=O)c1nc(F)c[nH]c1=O [favipiravir, reference compound]",body weight after 4 days of infection compared with the initial body weight,[8]; […],did not change significantly
same,"in vivo fluorescence imaging, fluorescence intensity on ventral and dorsal side",[9],weak fluorescence intensity
CC(=O)OC[C@@]1(F)O[C@@H](n2ccc(=O)[nH]c2=O)[C@H](OC(C)=O)[C@@H]1OC(C)=O [Compound X219-1],solubility at 15 min,[3],150 µg/mL
Br.CC(=O)O[C@H]1[C@H](n2ccc(=O)n(COC(=O)c3cccnc3)c2=O)O[C@](F)(COC(=O)C(C)C)[C@H]1OC(C)=O [X265 hydrobromide],solubility at 15 min,[3],8050 µg/mL
CCCCCCCCCCCC(=O)OCn1c(=O)ccn([C@@H]2O[C@](F)(COC(=O)CCCCCCCCCCC)[C@@H](O)[C@H]2O)c1=O [Compound X199],pEC50,[1],5.55
same,inhibition at 10 µM,[1],96.1%
same,CC50 at 5 days,[2],> 10000 nM
same,CC50,[4],> 10000 nM
same,pEC50,[6],6.39
same,pEC50,[7],6.34
CC(C)C(=O)OC[C@@]1(F)O[C@@H](n2ccc(=O)n(COC(=O)[C@@H]3CCCN3C)c2=O)[C@H](OC(=O)C(C)C)[C@@H]1OC(=O)C(C)C [Compound X267],pEC50,[1],5.70
same,inhibition at 10 µM,[1],94.1%
same,CC50 at 5 days,[2],> 10000 nM
same,CC50,[4],> 10000 nM
same,pEC50,[6],6.30
same,pEC50,[7],6.06
CC(C)C(=O)OC[C@@]1(F)O[C@@H](n2ccc(=O)n(COC(=O)c3cccnc3)c2=O)[C@H](O)[C@@H]1O [Compound X207],pEC50,[1],5.72
same,inhibition at 10 µM,[1],91.8%
same,CC50 at 5 days,[2],> 10000 nM
same,CC50,[4],> 10000 nM
same,pEC50,[6],6.42
same,pEC50,[7],5.39
CC(C)C(=O)OC[C@@]1(F)O[C@@H](n2ccc(=O)n(COC(=O)[C@@H](N)C(C)C)c2=O)[C@H](OC(=O)C(C)C)[C@@H]1OC(=O)C(C)C [Compound X98],pEC50,[1],5.94
same,inhibition at 10 µM,[1],95.7%
same,CC50 at 5 days,[2],> 10000 nM
same,CC50,[4],> 10000 nM
same,pEC50,[6],6.30
same,pEC50,[7],5.85
Br.CC(=O)OC[C@@]1(F)O[C@@H](n2ccc(=O)n(COC(=O)c3cccnc3)c2=O)[C@H](OC(C)=O)[C@@H]1OC(C)=O [X219 hydrobromide],solubility at 15 min,[3],17600 µg/mL
CC(C)C(=O)OCn1c(=O)ccn([C@@H]2O[C@](F)(COC(=O)[C@@H](N)C(C)C)[C@@H](OC(=O)C(C)C)[C@H]2OC(=O)C(C)C)c1=O [Compound X79],inhibition at 10 µM,[1],< 10%
same,CC50 at 5 days,[2],> 10000 nM
same,CC50,[4],> 10000 nM
same,pEC50,[6],6.32
same,pEC50,[7],5.84
CC(=O)OC[C@@]1(F)O[C@@H](n2ccc(=O)n(COC(=O)c3cccnc3)c2=O)[C@H](OC(C)=O)[C@@H]1OC(C)=O.Cl [X219 hydrochloride],pulmonary viral load compared with the PR8+vehicle group,"[8]; […], X219 hydrochloride 10, 20, 30 mpk intragastric once daily, Day 4",significantly reduced
same,body weight after 4 days of infection compared with the initial body weight,[8]; […],did not change significantly
same,reduction of pulmonary viral load compared with the PR8+vehicle group,"[8]; dose 20 mg/kg intragastric once daily, Day 4",greater than 4 log10
same,reduction of pulmonary viral load compared with the PR8+vehicle group,"[8]; dose 30 mg/kg intragastric once daily, Day 4",greater than 4 log10
same,"levels of inflammatory factors (IL-6, IL-8, IL-1B, TNF-α, ISG-15, and TNF-1B) in the lungs compared with the PR8+vehicle group","[8]; lung tissue, Day 4",significantly lower
same,inhibitory effect on virus compared with the positive drug favipiravir (200 mpk),"[8]; pulmonary viral load, Day 4",significantly better
same,solubility at 15 min,[3],4740 µg/mL
same,Content reduction (%),[5]; [11],0.24%
same,Content reduction (%),[5]; [12],0.28%
same,Content reduction (%),[5]; [13],0.34%
same,Content reduction (%),[5]; [14],0.55%
same,Content reduction (%),[5]; [15],0.64%
same,Content reduction (%),[5]; [16],0.72%
same,Content reduction (%),[5]; [17],0.73%
same,Content reduction (%),[5]; [18],0.87%
same,Content reduction (%),[5]; [19],0.98%
same,Content reduction (%),[5]; [20],2.03%
same,Content reduction (%),[5]; [21],3.09%
same,Content reduction (%),[5]; [22],4.10%
same,Content reduction (%),[5]; [23],5.13%
same,Content reduction (%),[5]; [24],6.13%
same,Content reduction (%),[5]; [25],7.07%
same,Content reduction (%),[5]; [26],8.02%
same,reduction in the pulmonary viral load compared with the vehicle group,"[10]; 20 mpk intragastric once daily, Day 4",about 0.7 log10
same,change in the body weight,"[10]; RSV A2-infected BALB/C mice, X219 hydrochloride 20 mpk or X28-1 10 mpk intragastric once daily",began to show an increase in the body weight on Day 3
CC(=O)O[C@H]1[C@H](n2ccc(=O)n(COC(=O)c3cccnc3)c2=O)O[C@](F)(COC(=O)C(C)C)[C@H]1OC(C)=O.Cl [X265 hydrochloride],solubility at 15 min,[3],19500 µg/mL
CC(C)(C)C(=O)OCn1c(=O)ccn([C@@H]2O[C@](F)(COC(=O)c3cccnc3)[C@@H](O)[C@H]2O)c1=O [Compound X222],pEC50,[1],5.48
same,inhibition at 10 µM,[1],90.3%
same,CC50 at 5 days,[2],> 10000 nM
same,CC50,[4],> 10000 nM
same,pEC50,[6],> 6.43
same,pEC50,[7],6.11

# From patent publication US20250282812A1, “ANTIVIRAL NUCLEOSIDE ANALOGUE, AND PHARMACEUTICAL COMPOSITION AND USE THEREOF” (SHANGHAI INSTITUTE OF MATERIA MEDICA , CHINESE ACADEMY OF …, priority 2022, published 2025)
